In patent US8835458B2 (Hanmi Science Co., Ltd, priority 2010, dated 2014):
Counter-ions that a name gives are not always drawn.

How the values were obtained:
[1] = tested on: MDA-MB-231 breast cancer cell lines; assay: Evaluation of inhibition on cell growth (MTS); type: cell-based; conditions: Homo sapiens, MDA-MB-231, 120 hours
Experimental: (§1) MDA-MB-231 breast cancer cell lines (ATCC #HTB-26) and BxPC-3 pancreas cancer cell lines (ATCC #CRL 1687), which have been reported to express XIAP, were obtained from ATCC (American type culture collection; Rockville, Md.). MDA-MB-231 cell lines were incubated in L-15 medium supplemented with 10% FBS and 1% penicillin/streptomycin (Gibco BRL) at a T-75 cm^2 growth flask. In addition, BxPC-3 cell lines were incubated in RPMI medium supplemented with 10% FBS and 1% penicillin/streptomycin. For experiments of toxicity to normal cells, fibroblasts Hs27 (ATCC #CRL 1634) and Balb/c3t3 (ATCC #CCL 163) were used. The various cell lines were transferred into 96-well plates at a density of 3,000˜5,000 cells/100 μL, and cultured for 24 hours under conditions of 37° C., 5% CO2, 95% air, and 100% relative humidity (MDA-MB-231 cells were cultured under atmospheric conditions). The cells were treated with 10 μM˜0.1 nM of test compounds, and MDA-MB-231, BxPC-3, and normal cell lines were cultured for 120, 96, and 72 hours, respectively.
(§2) Cell viabilities of MDA-MB-231 cell lines were measured at an absorbance of 490 nm using CellTiter 96™ AQueous One Solution Cell proliferation Assay (MTS, Promega), and cell viabilities of BxPC-3 and normal cell lines were measured by fixing cells with 10% TCA (trichloroacetic acid), staining with SRB (sulforhodamine B), and measuring at 540 nm. From the values, GI50 values in which test compounds reduce the growth of cancer cells by 50% were calculated. The growth rates of cancer cells were calculated from following Equation 1 or 2. [(Ti−Tz)/(C−Tz)]×100 (for Ti>=Tz) [Equation 1] [(Ti−Tz)/Tz]×100 (for Ti<Tz) [Equation 2] In Equations 1 and 2, Tz refers to a density of untreated cells, which is an absorbance in 0% cell growth groups. C refers to a density of cells cultured by adding only medium, and Ti refers to a density of cells treated with test compounds.
(§3) GI50 value is the concentration of a test compound when the value of Equation 1 is 50, which indicates the concentration of test compound required to inhibit the cancer cells by 50%. On each measurement, test compounds were compared with a control.
(§4) The activity value of each compound (GI50 value) was shown in Table 5, and an IAP antagonist was used as a control.
(§5) In the activity measurement on MDA-MB-231 breast cancer cell lines, the values were represented as “***” for 100 nM or less, “**” for over 100 nM to below 1,000 nM, and “*” for 1,000 nM or more. In the measurement on normal cell lines, Balb/C and Hs27, the values were represented as “+++” for 10,000 nM or more, “++” for over 5,000 nM to below 10,000 nM, and “+” for 5,000 nM or less.

[2] = Toxicity to normal cells (SRB); type: cell-based, human; conditions: human, Hs27 fibroblasts (normal cell line)
Experimental: as §1, §2, §3, §4, §5

Row | GI50 [1] [nM] | SMILES | GI50 at 72 h [2] [nM]
1 | ≤ 100 | CN[C@@H](C)C(=O)N[C@H](C(=O)N1CCC[C@H]1C(=O)Nc1cc2c(Nc3cc(Cl)c(OCc4ccccn4)c(Cl)c3)ncnc2cc1OC)C(C)(C)C [Example 101, (S)—N-(4-((3,5-dichloro-4-(pyridin-2-ylmethoxy)phenyl)amino)-7-methoxyquinazolin-6-yl)-1-((S)-3,3-dimethyl-2-((S)-2-(methylamino)propanamido)butanoyl)pyrrolidine-2-carboxamide hydrochloride] | > 10000
2 | ≤ 100 | CN[C@@H](C)C(=O)N[C@H](C(=O)N1CCC[C@H]1C(=O)Nc1cc2c(Nc3ccc(Br)c(Cl)c3F)ncnc2cc1OC)C(C)(C)C [Example 87, (S)—N-(4-((4-bromo-3-chloro-2-fluorophenyl)amino)-7-methoxyquinazolin-6-yl)-1-((S)-3,3-dimethyl-2-((S)-2-(methylamino)propanamido)butanoyl)pyrrolidine-2-carboxamide hydrochloride] | > 10000
3 | ≤ 100 | CN[C@@H](C)C(=O)N[C@H](C(=O)N1CCC[C@H]1C(=O)Nc1cc2c(Nc3ccc(N4CCOCC4)c(Cl)c3)ncnc2cc1OC)C(C)(C)C [Example 95, (S)—N-(4-((3-chloro-4-morpholinophenyl)amino)-7-methoxyquinazolin-6-yl)-1-((S)-3,3-dimethyl-2-((S)-2-(methylamino)propanamido)butanoyl)pyrrolidine-2-carboxamide] | > 10000
4 | ≤ 100 | CCN(CC)c1ccc(Nc2ncnc3cc(OC)c(NC(=O)[C@@H]4CCCN4C(=O)[C@@H](NC(=O)[C@H](C)NC)C(C)(C)C)cc23)cc1Cl [Example 99, (S)—N-(4-((3-chloro-4-(diethylamino)phenyl)amino)-7-methoxyquinazolin-6-yl)-1-((S)-3,3-dimethyl-2-((S)-2-(methylamino)propanamido)butanoyl)pyrrolidine-2-carboxamide hydrochloride] | > 10000
5 | ≤ 100 | CN[C@@H](C)C(=O)N[C@H](C(=O)N1CCC[C@H]1C(=O)Nc1cc2c(Nc3cccnc3Cl)ncnc2cc1OC)C(C)(C)C [Example 78, (S)—N-(4-((2-chloropyridin-3-yl)amino)-7-methoxyquinazolin-6-yl)-1-((S)-3,3-dimethyl-2-((S)-2-(methylamino)propanamido)butanoyl)pyrrolidine-2-carboxamide hydrochloride] | > 10000
6 | ≤ 100 | CN[C@@H](C)C(=O)N[C@H](C(=O)N1CCC[C@H]1C(=O)Nc1cc2c(Nc3ccc(CN4CCCCC4)cc3)ncnc2cc1OC)C(C)(C)C [Example 104, (S)-1-((S)-3,3-dimethyl-2-((S)-2-(methylamino)propanamido)butanoyl)-N-(7-methoxy-4-((4-(piperidin-1-ylmethyl)phenyl)amino)quinazolin-6-yl)pyrrolidine-2-carboxamide hydrochloride] | > 10000
7 | ≤ 100 | CN[C@@H](C)C(=O)N[C@H](C(=O)N1CCC[C@H]1C(=O)Nc1cc2c(Nc3ccc4c(=O)cc(C)oc4c3)ncnc2cc1OC)C(C)(C)C [Example 93, (S)-1-((S)-3,3-dimethyl-2-((S)-2-(methylamino)propanamide)butanoyl)-N-(7-methoxy-4-((2-methyl-4-oxo-4H-chromen-7-yl)amino)quinazolin-6-yl)pyrrolidine-2-carboxamide hydrochloride] | > 10000
8 | ≤ 100 | CN[C@@H](C)C(=O)N[C@H](C(=O)N1CCC[C@H]1C(=O)Nc1cc2c(Nc3ccc(N4CCN(CC5CC5)CC4)c(F)c3)ncnc2cc1OC)C(C)(C)C [Example 100, hydrochloride] | > 10000
9 | ≤ 100 | C#CCOc1ccc(Nc2ncnc3cc(OC)c(NC(=O)[C@@H]4CCCN4C(=O)[C@@H](NC(=O)[C@H](C)NC)C(C)(C)C)cc23)cc1 [Example 91, (S)-1-((S)-3,3-dimethyl-2-((S)-2-(methylamino)propanamide)butanoyl)-N-(7-methoxy-4-((4-(2-propyn-1-yloxy)phenyl)amino)quinazolin-6-yl)pyrrolidine-2-carboxamide hydrochloride] | > 10000
10 | ≤ 100 | CN[C@@H](C)C(=O)N[C@H](C(=O)N1CCC[C@H]1C(=O)Nc1cc2c(Nc3ccc(N4CCC(N5CCCCC5)CC4)cc3)ncnc2cc1OC)C(C)(C)C [Example 103, (S)—N-(4-((4-([1,4′-bipiperidine]-1′-yl)phenyl)amino)-7-methoxyquinazolin-6-yl)-1-((S)-3,3-dimethyl-2-((S)-2-(methylamino)propanamido)butanoyl)pyrrolidine-2-carboxamide hydrochloride] | > 10000
11 | 100 to 1000 | CN[C@@H](C)C(=O)N[C@H](C(=O)N1CCC[C@H]1C(=O)Nc1cc2c(NCCc3ccccc3)ncnc2cc1OC)C(C)(C)C [Example 83, hydrochloride] | > 10000
12 | ≤ 100 | CN[C@@H](C)C(=O)N[C@H](C(=O)N1CCC[C@H]1C(=O)Nc1cc2c(Nc3ccc(N4CCN(CC5CC5)CC4)c(Cl)c3)ncnc2cc1OC)C(C)(C)C [Example 92, (S)—N-(4-((3-chloro-4-(4-(cyclopropylmethyl)piperazin-1-yl)phenyl)amino)-7-methoxyquinazolin-6-yl)-1-((S)-3,3-dimethyl-2-((S)-2-(methylamino)propanamido)butanoyl)pyrrolidine-2-carboxamide] | > 10000
13 | ≤ 100 | CN[C@@H](C)C(=O)N[C@H](C(=O)N1CCC[C@H]1C(=O)Nc1cc2c(NC(=O)Nc3ccccc3F)ncnc2cc1OC)C(C)(C)C [Example 89, (S)-1-((S)-3,3-dimethyl-2-((S)-2-(methylamino)propanamido)butanoyl)-N-(4-(3-(2-fluorophenyl)ureido)-7-methoxyquinazolin-6-yl)pyrrolidine-2-carboxamide hydrochloride] | > 10000
14 | ≤ 100 | CN[C@@H](C)C(=O)N[C@H](C(=O)N1CCC[C@H]1C(=O)Nc1cc2c(Nc3ccc(Br)cc3Cl)ncnc2cc1OC)C(C)(C)C [Example 80, (S)—N-(4-((4-bromo-2-chlorophenyl)amino)-7-methoxyquinazolin-6-yl)-1-((S)-3,3-dimethyl-2-((S)-2-(methylamino)propanamido)butanoyl)pyrrolidine-2-carboxamide hydrochloride] | > 10000
15 | 100 to 1000 | CN[C@@H](C)C(=O)N[C@H](C(=O)N1CCC[C@H]1C(=O)Nc1cc2c(Nc3ccc4c(c3)CC(=O)N4)ncnc2cc1OC)C(C)(C)C [Example 94, (S)-1-((S)-3,3-dimethyl-2-((S)-2-(methylamino)propanamide)butanoyl)-N-(7-methoxy-4-((2-oxoindolin-5-yl)amino)quinazolin-6-yl)pyrrolidine-2-carboxamide hydrochloride] | > 10000
16 | ≤ 100 | CN[C@@H](C)C(=O)N[C@H](C(=O)N1CCC[C@H]1C(=O)Nc1cc2c(Nc3ccc(N4CCN(C)CC4)c(F)c3)ncnc2cc1OC)C(C)(C)C [Example 112, (S)-1-((S)-3,3-dimethyl-2-((S)-2-(methylamino)propanamido)butanoyl)-N-(4-((3-fluoro-4-(4-methylpiperazin-1-yl)phenyl)amino)-7-methoxyquinazolin-6-yl)pyrrolidine-2-carboxamide] | > 10000
17 | ≤ 100 | CN[C@@H](C)C(=O)N[C@H](C(=O)N1CCC[C@H]1C(=O)Nc1cc2c(Nc3ccc(N4CCN(C(C)C)CC4)c(Cl)c3)ncnc2cc1OC)C(C)(C)C [Example 97, (S)—N-(4-((3-chloro-4-(4-isopropylpiperazin-1-yl)phenyl)amino)-7-methoxyquinazolin-6-yl)-1-((S)-3,3-dimethyl-2-((S)-2-(methylamino)propanamido)butanoyl)pyrrolidine-2-carboxamide hydrochloride] | > 10000
18 | ≤ 100 | CN[C@@H](C)C(=O)N[C@H](C(=O)N1CCC[C@H]1C(=O)Nc1cc2c(Nc3ccc(C4CCN(C)CC4)cc3)ncnc2cc1OC)C(C)(C)C [Example 106, (S)-1-((S)-3,3-dimethyl-2-((S)-2-(methylamino)propanamido)butanoyl)-N-(7-methoxy-4-((4-(1-methylpiperidin-4-yl)phenyl)amino)quinazolin-6-yl)pyrrolidine-2-carboxamide hydrochloride] | > 10000
